Measured values from patent US11697648B2, “Fused pyrimidine pyridinone compounds as JAK inhibitors” (THERAVANCE BIOPHARMA R&D IP, LLC, priority 2019, dated 2023).

Legend:
[1] = system: Caco-2 cell monolayers; experiment: Caco-2 permeation assay; format: in vitro ADME; settings: 5 μM, A-B direction, with Verapamil (25 μM)
Description: Assay 4: Caco-2 Permeation Assay
The Caco-2 permeation assay was performed to model the ability of test compounds to pass through the intestine and get into the blood stream after oral administration. The rate at which test compounds in solution permeate a cell monolayer designed to mimic the tight junction of human small intestinal monolayers was determined.
CacoReady 24-well transwell plates were obtained from ADMEcell (Alameda, Calif.). The compounds were evaluated at a concentration of 5 μM from 10 mM DMSO stock solutions in duplicate (n=2). The passive permeability of the compounds tested was evaluated using Caco-2 cell monolayers along with Verapamil (25 μM) to inhibit P-gp transport proteins in the apical to basolateral (A-B) direction. The experiment was conducted in a 37° C., 5% CO2 incubator. Caco-2 culture media consisted of standard filtered DMEM, FCS 10%, L-Glutamine 1% and PenStrep 1%. Basal assay plate was prepared by adding 750 μL of transport buffer to A-B wells. A CacoReady™ plate was prepared by removing the Caco-2 media from the apical wells and replacing with fresh transport media (200 μL repeated for a total of 3 washes). Blank media (200 μL) was then replaced with diluted compound for A-B wells. To begin the incubation, the basal plate was removed from the incubator and the apical section was added on top of it. Samples (40 μL) were collected from the apical and basal compartments for time zero (t0). Samples were collected again after 120 minutes (t120) from the apical and basal compartments. All samples were diluted and prepared for bioanalysis by LC-MS/MS. The permeation coefficient (Kp, mean A to B+ Verapamil Papparent) in cm/sec was calculated as dQ (flux)/(dt×Area×concentration).
In this assay, a Kp value less than about 5×10^−6 cm/sec is considered favorable to minimize systemic exposure and target the colon. A Kp value less than about 10×10^−6 cm/sec may also be sufficient to minimize systemic exposure and target the colon.

[2] = target: JAK3 (Homo sapiens (Human), UniProt P52333); experiment: Biochemical JAK3 kinase assay (LanthaScreen); settings: for JAK3 (pKi)-JAK1 (pKi): selectivity JAK3 over JAK1, difference of pKi
Method in brief: (§1)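 GST-JAK + GFP-STAT1 peptide, HEPES pH 7.5/MgCl2/EGTA/Brij-35 buffer; cpd preincubation 1 h RT; ATP start, 1 h RT; stop with 10 mM EDTA + 2 nM Tb-anti-pSTAT1; TR-FRET 520/495. 4-parameter IC50 → pKi (Cheng-Prusoff).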

[3] = target: JAK2 (Homo sapiens (Human), UniProt O60674); experiment: Biochemical JAK2 kinase assay (LanthaScreen)
Method in brief: as §1

[4] = target: Tyk2 (Homo sapiens (Human), UniProt P29597); experiment: Biochemical Tyk2 kinase assay (LanthaScreen)
Method in brief: as §1

[5] = target: JAK1 (Homo sapiens (Human), UniProt P23458); experiment: Biochemical JAK1 kinase assay (LanthaScreen)
Method in brief: as §1

[6] = system: IL-2 stimulated STAT5 phosphorylation in Tall-1 human T cell line (JAK3); experiment: Cellular JAK3 potency assay: inhibition of IL-2 stimulated pSTAT5 in Tall-1 T cells; format: cell-based; settings: IL-2 stimulated pSTAT5, Tall-1 T cells
Method in brief: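 AlphaLISA SureFire Ultra measures STAT5 Tyr694/699 phosphorylation in lysed Tall-1 human T cells. Cells were exposed to compound for 1 h at 37 °C before a 30 min IL-2 challenge (300 ng/ml final). Values are pIC50 means with standard deviation from signal-versus-concentration curves.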

Sequence of Tyk2 (P29597 whole entry): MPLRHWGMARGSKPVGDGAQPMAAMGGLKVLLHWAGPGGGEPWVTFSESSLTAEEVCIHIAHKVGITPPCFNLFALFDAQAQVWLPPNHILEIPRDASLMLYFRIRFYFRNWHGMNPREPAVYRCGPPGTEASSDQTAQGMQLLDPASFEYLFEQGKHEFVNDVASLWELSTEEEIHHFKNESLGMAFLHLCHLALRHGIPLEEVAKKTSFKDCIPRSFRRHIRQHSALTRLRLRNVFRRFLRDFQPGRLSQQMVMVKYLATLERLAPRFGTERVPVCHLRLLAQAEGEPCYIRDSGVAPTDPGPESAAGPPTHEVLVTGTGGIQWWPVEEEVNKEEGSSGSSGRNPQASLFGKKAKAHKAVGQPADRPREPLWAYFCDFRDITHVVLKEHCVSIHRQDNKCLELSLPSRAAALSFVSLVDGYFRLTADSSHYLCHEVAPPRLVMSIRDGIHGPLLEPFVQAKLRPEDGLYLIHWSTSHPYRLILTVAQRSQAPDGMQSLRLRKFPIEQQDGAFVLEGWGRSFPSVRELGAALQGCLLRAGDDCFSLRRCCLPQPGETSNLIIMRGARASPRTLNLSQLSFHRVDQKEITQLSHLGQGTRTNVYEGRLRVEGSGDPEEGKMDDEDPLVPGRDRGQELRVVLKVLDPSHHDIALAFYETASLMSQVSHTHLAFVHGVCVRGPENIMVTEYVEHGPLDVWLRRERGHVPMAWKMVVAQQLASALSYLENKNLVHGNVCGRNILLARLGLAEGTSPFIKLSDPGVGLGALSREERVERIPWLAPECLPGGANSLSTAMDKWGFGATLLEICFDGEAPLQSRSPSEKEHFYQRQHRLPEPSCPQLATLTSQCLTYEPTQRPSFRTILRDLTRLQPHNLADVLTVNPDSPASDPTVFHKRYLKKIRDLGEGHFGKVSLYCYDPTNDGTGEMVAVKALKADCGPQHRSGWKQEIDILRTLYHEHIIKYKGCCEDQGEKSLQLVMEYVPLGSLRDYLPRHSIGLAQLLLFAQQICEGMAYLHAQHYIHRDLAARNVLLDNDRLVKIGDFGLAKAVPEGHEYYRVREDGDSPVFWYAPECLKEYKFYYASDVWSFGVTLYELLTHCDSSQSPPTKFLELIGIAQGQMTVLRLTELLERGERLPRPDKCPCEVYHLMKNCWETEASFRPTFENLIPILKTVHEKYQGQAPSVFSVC
Sequence of JAK1 (P23458 whole entry): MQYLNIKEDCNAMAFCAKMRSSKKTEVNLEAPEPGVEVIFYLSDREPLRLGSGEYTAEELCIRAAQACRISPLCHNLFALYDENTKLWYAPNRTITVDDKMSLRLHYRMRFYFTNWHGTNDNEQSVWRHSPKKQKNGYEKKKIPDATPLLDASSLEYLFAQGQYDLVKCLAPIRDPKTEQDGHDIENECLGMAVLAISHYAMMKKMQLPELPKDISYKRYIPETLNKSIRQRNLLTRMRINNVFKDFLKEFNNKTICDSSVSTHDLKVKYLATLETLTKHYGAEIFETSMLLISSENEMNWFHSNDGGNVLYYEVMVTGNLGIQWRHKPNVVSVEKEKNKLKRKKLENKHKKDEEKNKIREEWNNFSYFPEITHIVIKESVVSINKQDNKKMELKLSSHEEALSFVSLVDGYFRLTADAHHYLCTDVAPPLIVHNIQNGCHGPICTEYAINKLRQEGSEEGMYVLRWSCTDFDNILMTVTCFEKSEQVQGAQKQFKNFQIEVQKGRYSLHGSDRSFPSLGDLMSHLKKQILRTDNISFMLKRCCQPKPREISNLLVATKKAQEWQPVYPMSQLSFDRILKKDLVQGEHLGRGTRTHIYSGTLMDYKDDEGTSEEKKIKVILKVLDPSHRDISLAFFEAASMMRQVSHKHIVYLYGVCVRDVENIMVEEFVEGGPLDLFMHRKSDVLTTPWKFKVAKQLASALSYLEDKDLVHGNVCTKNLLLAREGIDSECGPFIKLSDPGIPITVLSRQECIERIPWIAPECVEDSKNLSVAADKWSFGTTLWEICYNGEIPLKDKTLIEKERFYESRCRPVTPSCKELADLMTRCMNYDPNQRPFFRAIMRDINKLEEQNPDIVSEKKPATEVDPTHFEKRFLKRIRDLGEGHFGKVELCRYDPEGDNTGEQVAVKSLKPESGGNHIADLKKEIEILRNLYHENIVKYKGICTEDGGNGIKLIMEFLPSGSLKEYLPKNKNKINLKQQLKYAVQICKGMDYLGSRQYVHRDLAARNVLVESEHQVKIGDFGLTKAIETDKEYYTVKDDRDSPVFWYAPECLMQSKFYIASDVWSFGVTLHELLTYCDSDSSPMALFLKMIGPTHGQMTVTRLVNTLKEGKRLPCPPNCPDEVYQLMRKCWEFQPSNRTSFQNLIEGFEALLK
Sequence of JAK3 (P52333 whole entry): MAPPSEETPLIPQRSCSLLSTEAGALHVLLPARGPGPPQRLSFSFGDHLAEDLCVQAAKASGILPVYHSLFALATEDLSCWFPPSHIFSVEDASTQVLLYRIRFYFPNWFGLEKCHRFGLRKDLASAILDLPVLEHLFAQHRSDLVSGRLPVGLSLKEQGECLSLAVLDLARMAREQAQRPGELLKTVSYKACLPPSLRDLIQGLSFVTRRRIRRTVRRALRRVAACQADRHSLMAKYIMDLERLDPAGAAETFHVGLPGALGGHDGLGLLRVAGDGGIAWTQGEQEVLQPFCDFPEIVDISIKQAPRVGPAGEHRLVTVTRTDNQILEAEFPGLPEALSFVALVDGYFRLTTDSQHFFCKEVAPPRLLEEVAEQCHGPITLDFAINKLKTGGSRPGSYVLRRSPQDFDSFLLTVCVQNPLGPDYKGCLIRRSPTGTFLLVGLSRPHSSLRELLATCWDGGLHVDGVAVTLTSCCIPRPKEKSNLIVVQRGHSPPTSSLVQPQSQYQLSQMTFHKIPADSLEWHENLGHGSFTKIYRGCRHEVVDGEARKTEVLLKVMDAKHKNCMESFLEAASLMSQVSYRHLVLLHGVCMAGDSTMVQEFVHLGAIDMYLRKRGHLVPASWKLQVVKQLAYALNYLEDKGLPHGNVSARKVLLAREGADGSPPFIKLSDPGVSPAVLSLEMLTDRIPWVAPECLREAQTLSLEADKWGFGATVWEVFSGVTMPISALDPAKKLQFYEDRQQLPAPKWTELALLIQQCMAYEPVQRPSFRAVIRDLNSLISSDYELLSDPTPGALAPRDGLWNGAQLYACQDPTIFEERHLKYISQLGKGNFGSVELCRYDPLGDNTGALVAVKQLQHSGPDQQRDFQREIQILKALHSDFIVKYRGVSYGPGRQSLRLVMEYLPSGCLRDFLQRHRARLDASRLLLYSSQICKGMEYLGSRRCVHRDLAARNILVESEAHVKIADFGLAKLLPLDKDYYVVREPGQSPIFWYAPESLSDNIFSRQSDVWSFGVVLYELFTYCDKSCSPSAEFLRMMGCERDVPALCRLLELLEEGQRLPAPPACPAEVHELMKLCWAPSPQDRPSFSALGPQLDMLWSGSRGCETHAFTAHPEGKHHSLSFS
Sequence of JAK2 (O60674 whole entry): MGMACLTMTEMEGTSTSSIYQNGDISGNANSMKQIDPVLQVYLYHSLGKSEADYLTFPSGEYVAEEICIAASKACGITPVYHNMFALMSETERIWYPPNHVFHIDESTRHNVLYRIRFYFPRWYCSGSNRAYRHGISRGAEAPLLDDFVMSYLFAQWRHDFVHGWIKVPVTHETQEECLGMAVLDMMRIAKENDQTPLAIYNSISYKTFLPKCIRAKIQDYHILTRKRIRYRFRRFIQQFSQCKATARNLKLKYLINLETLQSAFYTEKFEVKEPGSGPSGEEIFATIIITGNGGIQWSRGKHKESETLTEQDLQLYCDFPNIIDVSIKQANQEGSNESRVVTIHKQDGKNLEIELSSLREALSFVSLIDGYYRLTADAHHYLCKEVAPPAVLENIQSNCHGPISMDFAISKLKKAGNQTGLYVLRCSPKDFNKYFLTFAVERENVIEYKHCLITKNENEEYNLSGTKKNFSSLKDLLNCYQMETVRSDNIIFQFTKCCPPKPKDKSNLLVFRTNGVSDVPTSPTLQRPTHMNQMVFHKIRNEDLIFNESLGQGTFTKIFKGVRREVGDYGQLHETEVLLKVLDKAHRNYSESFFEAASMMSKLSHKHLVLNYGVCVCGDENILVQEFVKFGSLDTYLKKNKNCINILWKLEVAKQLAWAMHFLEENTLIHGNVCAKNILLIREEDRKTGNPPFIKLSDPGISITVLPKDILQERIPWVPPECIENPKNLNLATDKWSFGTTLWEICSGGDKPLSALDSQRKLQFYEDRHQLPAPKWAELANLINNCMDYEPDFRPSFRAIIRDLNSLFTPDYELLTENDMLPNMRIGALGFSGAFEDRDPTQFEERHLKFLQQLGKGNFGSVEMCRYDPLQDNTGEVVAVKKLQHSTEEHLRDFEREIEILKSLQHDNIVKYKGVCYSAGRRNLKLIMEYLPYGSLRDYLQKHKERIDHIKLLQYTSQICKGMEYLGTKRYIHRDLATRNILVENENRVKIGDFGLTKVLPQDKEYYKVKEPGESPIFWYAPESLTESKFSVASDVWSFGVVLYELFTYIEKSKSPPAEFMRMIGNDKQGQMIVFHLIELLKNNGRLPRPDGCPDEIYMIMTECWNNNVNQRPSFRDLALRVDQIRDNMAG

SMILES	Caco Kp [1]	JAK 3 (pKi) [2]	JAK3 (pKi)-JAK1 (pKi) [2]	JAK 2 (pKi) [3]	Tyk 2 (pKi) [4]	JAK 1 (pKi) [5]	Tall-1 (pIC50) [6]
C=CC(=O)N1CCN(CCn2c(=O)ccc3cnc(Nc4ccc(N5CCN(S(=O)(=O)CCOC)CC5)cc4)nc32)[C@@H](C)C1 [Example 170]	B (B represents a value between 5×10^−6 and 10×10^−6 cm/sec)	A (A represents a pKi value≥10 (Ki≤0.1 nM))	A (A represents a value of 3 or above)	E (E represents a pKi value of 7 or below (Ki of 100 nM or above))	E (E represents a pKi value of 7 or below (Ki of 100 nM or above))	E (E represents a pKi value of 7 or below (Ki of 100 nM or above))	A (A represents a pIC50 value≥7.5 (IC50≤32 nM))
C=CC(=O)N1CC(CCn2c(=O)ccc3cnc(Nc4ccc(N5CCN(C(=O)[C@H](C)O)CC5)cc4)nc32)C1 [Example 106]	A (A represents a value below 5×10^−6 cm/sec)	A (A represents a pKi value≥10 (Ki≤0.1 nM))	A (A represents a value of 3 or above)	E (E represents a pKi value of 7 or below (Ki of 100 nM or above))	E (E represents a pKi value of 7 or below (Ki of 100 nM or above))	E (E represents a pKi value of 7 or below (Ki of 100 nM or above))	B (B represents a pC50 value between 6.7 (included) and 7.5 (IC50 between 200 nM and 32 nM))
C=CC(=O)N1CCN(CCn2c(=O)ccc3cnc(Nc4ccc(N5CCN(CCCOC)CC5)cc4)nc32)CC1 [Example 207]	B (B represents a value between 5×10^−6 and 10×10^−6 cm/sec)	B (B represents pKi value between 9 and 10 (Ki between 1 nM and 0.1 nM))	A (A represents a value of 3 or above)	E (E represents a pKi value of 7 or below (Ki of 100 nM or above))	E (E represents a pKi value of 7 or below (Ki of 100 nM or above))	E (E represents a pKi value of 7 or below (Ki of 100 nM or above))	B (B represents a pC50 value between 6.7 (included) and 7.5 (IC50 between 200 nM and 32 nM))
C=CC(=O)N1CC(CCn2c(=O)ccc3cnc(Nc4cccc(OC)c4)nc32)C1 [Example 19]	C (C represents a value between 10×10^−6 and 30×10^−6 cm/sec)	B (B represents pKi value between 9 and 10 (Ki between 1 nM and 0.1 nM))	A (A represents a value of 3 or above)	E (E represents a pKi value of 7 or below (Ki of 100 nM or above))	E (E represents a pKi value of 7 or below (Ki of 100 nM or above))	E (E represents a pKi value of 7 or below (Ki of 100 nM or above))	C (C represents a pIC50 value between 6 and 6.7 (IC50 between 1 μM and 200 nM))
C=CC(=O)N1CC(CCn2c(=O)ccc3cnc(Nc4ccc(N5CCN(C)CC5)cn4)cc32)C1 [Example 14]	A (A represents a value below 5×10^−6 cm/sec)	B (B represents pKi value between 9 and 10 (Ki between 1 nM and 0.1 nM))	A (A represents a value of 3 or above)	E (E represents a pKi value of 7 or below (Ki of 100 nM or above))	E (E represents a pKi value of 7 or below (Ki of 100 nM or above))	E (E represents a pKi value of 7 or below (Ki of 100 nM or above))	A (A represents a pIC50 value≥7.5 (IC50≤32 nM))
C=CC(=O)N1CCN(CCn2c(=O)ccc3cnc(Nc4ccc(N5CCN(S(C)(=O)=O)CC5)cc4)nc32)CC1 [Example 130]	A (A represents a value below 5×10^−6 cm/sec)	B (B represents pKi value between 9 and 10 (Ki between 1 nM and 0.1 nM))	A (A represents a value of 3 or above)	E (E represents a pKi value of 7 or below (Ki of 100 nM or above))	E (E represents a pKi value of 7 or below (Ki of 100 nM or above))	E (E represents a pKi value of 7 or below (Ki of 100 nM or above))	B (B represents a pC50 value between 6.7 (included) and 7.5 (IC50 between 200 nM and 32 nM))
C=CC(=O)N1CC(CCn2c(=O)ccc3cnc(Nc4cccc(N5CCN(C(C)=O)CC5)c4)nc32)C1 [Example 78]	A (A represents a value below 5×10^−6 cm/sec)	B (B represents pKi value between 9 and 10 (Ki between 1 nM and 0.1 nM))	A (A represents a value of 3 or above)	E (E represents a pKi value of 7 or below (Ki of 100 nM or above))	E (E represents a pKi value of 7 or below (Ki of 100 nM or above))	E (E represents a pKi value of 7 or below (Ki of 100 nM or above))	B (B represents a pC50 value between 6.7 (included) and 7.5 (IC50 between 200 nM and 32 nM))
C=CC(=O)N1CCN(CCn2c(=O)ccc3cnc(Nc4cnn(C)c4)nc32)[C@@H](C)C1 [Example 30]	A (A represents a value below 5×10^−6 cm/sec)	A (A represents a pKi value≥10 (Ki≤0.1 nM))	A (A represents a value of 3 or above)	E (E represents a pKi value of 7 or below (Ki of 100 nM or above))	E (E represents a pKi value of 7 or below (Ki of 100 nM or above))	E (E represents a pKi value of 7 or below (Ki of 100 nM or above))	B (B represents a pC50 value between 6.7 (included) and 7.5 (IC50 between 200 nM and 32 nM))
C=CC(=O)N1CC(CCn2c(=O)ccc3cnc(Nc4cnn(C(F)F)c4)nc32)C1 [Example 36]	C (C represents a value between 10×10^−6 and 30×10^−6 cm/sec)	B (B represents pKi value between 9 and 10 (Ki between 1 nM and 0.1 nM))	A (A represents a value of 3 or above)	–	–	E (E represents a pKi value of 7 or below (Ki of 100 nM or above))	C (C represents a pIC50 value between 6 and 6.7 (IC50 between 1 μM and 200 nM))
C=CC(=O)N1CC(CCn2c(=O)ccc3cnc(Nc4cccc(N5CCOCC5)c4)nc32)C1 [Example 28]	C (C represents a value between 10×10^−6 and 30×10^−6 cm/sec)	B (B represents pKi value between 9 and 10 (Ki between 1 nM and 0.1 nM))	A (A represents a value of 3 or above)	–	–	E (E represents a pKi value of 7 or below (Ki of 100 nM or above))	C (C represents a pIC50 value between 6 and 6.7 (IC50 between 1 μM and 200 nM))
C=CC(=O)N1CC(CCn2c(=O)ccc3cnc(Nc4cnn(C5CCOCC5)c4)nc32)C1 [Example 81]	A (A represents a value below 5×10^−6 cm/sec)	B (B represents pKi value between 9 and 10 (Ki between 1 nM and 0.1 nM))	A (A represents a value of 3 or above)	–	–	E (E represents a pKi value of 7 or below (Ki of 100 nM or above))	B (B represents a pC50 value between 6.7 (included) and 7.5 (IC50 between 200 nM and 32 nM))
C=CC(=O)N1CC(CCn2c(=O)ccc3cnc(Nc4cnn(CCO)c4)nc32)C1 [Example 35]	A (A represents a value below 5×10^−6 cm/sec)	B (B represents pKi value between 9 and 10 (Ki between 1 nM and 0.1 nM))	A (A represents a value of 3 or above)	–	–	E (E represents a pKi value of 7 or below (Ki of 100 nM or above))	C (C represents a pIC50 value between 6 and 6.7 (IC50 between 1 μM and 200 nM))
C=CC(=O)N1CC(CCn2c(=O)ccc3cnc(Nc4cnn(CC(F)F)c4)nc32)C1 [Example 20]	B (B represents a value between 5×10^−6 and 10×10^−6 cm/sec)	B (B represents pKi value between 9 and 10 (Ki between 1 nM and 0.1 nM))	A (A represents a value of 3 or above)	–	–	E (E represents a pKi value of 7 or below (Ki of 100 nM or above))	C (C represents a pIC50 value between 6 and 6.7 (IC50 between 1 μM and 200 nM))
